These results are taken from patent US20130316998A1, “METHOD FOR TREATING PANCREATIC CANCER” (Niiki Pharma Acquisition Corp. 2, priority 2010, published 2013).

Assay [1] relates to advanced-stage pancreatic cancer. To be noted: erlotinib in combination with gemcitabine; Moore et al. 2007; cited from earlier work.
The test system of assay [2] is PANC-1 cells. The note with it: Guo et al. 2009; Durkin et al. 2003; cited from earlier work.
In assay [3] the test system is PANC-1 cell line. Description: ATCC's MTT Cell Proliferation Assay, PANC-1. It counts as cell-based, human. As for the experimental part:
(§1) To test the activities of tris(8-quinolinolato)gallium(III), ATCC's MTT Cell Proliferation Assay® was performed using human pancreatic cancer cell lines PANC-1, BxPC-3, and Capan-1. Stock cultures were allowed to grow to 70-80% confluence for this study. The anti-proliferative activity of tris(8-quinolinolato)gallium(III), against the indicated cell lines was evaluated in vitro using the ATCC's MTT Cell Proliferation Assay (Catalog No. 30-1010K). PANC-1 was grown using DMEM, 10% fetal bovine serum (FBS), 1% of pen/strep/glutamine (PSG) and was seeded with 6E+03 cells/well. […] The plates were left overnight at room temperature in the dark and was read on a plate reader using SoftMax® Pro (version 5.2, Molecular Devices).
(§2) The absorbance data was analyzed as follows: Absorbance values were converted to Percent of Control and plotted against test agent concentrations for IC50 calculations using SoftMax® Pro (version 5.2, Molecular Devices). […] Percent of Control values were calculated by dividing the absorbance values for each test well by the No Drug Control average (column 11 values; cells+vehicle control) and multiplying by 100. Plots of Compound Concentration versus Percent of Control were analyzed using the 4-parameter equation to obtain IC50 values and other parameters that describe the sigmoidal dose response curve. […]

Assay [4] deals with pancreatic tumor cell line MIA PaCa2. Description: MTT assay in 3-dimentional tumor model (HuBiogel) derived from MIA PaCa2. Format: cell-based. To be noted: 3-D HuBiogel tumor beads. As for the experimental part: (§3) The compound tris(8-quinolinolato)gallium(III) was tested in a 3-dimentional tumor model derived from pancreatic tumor cell line MIA PaCa2. Specifically, cells were trypsinized, washed, counted by trypan blue exclusion. Tumor beads were then prepared by mixing 20,000 cells/100 of HuBiogel (4 mg/mL) (See U.S. patent application Ser. No. 10/546,506, which is incorporated herein by reference). The 3-D tumor beads were cultivated for 72 hours in multi-well plates with complete media (10% FBS) in a 37° C. incubator +5% CO2. Mini-tumors were treated with various concentrations of the test compound tris(8-quinolinolato)gallium(III) in media (final 0.2-0.3% DMSO) or control (DMSO). Repeated drug treatment was done by removing the culture media and replacing with fresh media with drug compound or DMSO. On Day 3, MTT assay and live-cell staining with Calcein AM were performed (5 beads/assay set).
(§4) Statistical analysis of data sets (Average, T-test, GI-50) was performed using MS-Excel program. The average GI-50 (the drug concentration required for growth inhibition at 50%) is […].
Background: Tetrazolium dyes change colour on reduction, which living cells bring about.

Assay [5] has the same test system. Description: live-cell staining with Calcein AM / image analysis in 3-D tumor beads. The note with it: 3-D HuBiogel tumor beads, Day 3. It counts as cell-based. As for the experimental part:
as §3, §4

Assay [6] has as its system Capan-1 cell line. The assay can be described thus: ATCC's MTT Cell Proliferation Assay, Capan-1. Format: cell-based, human. The note with it: Capan-1, 72 hours post-treatment. As for the experimental part: as §1, §2
Assay [7] relates to BxPC-3 cell line. The assay can be described thus: ATCC's MTT Cell Proliferation Assay, BxPC-3. It counts as cell-based, human. The note with it: BxPC-3, 72 hours post-treatment. As for the experimental part:
as §1, §2

Turning to `C#Cc1cccc(Nc2ncnc3cc(OCCOC)c(OCCOC)cc23)c1` [erlotinib], the “median overall survival benefit” value in assay [1] is “less than four weeks”. The “resistance of PANC-1 cells to the drug” value in assay [2] is on record as “resistant”.

`Nc1ccn([C@@H]2O[C@H](CO)[C@@H](O)C2(F)F)c(=O)n1` [gemcitabine]: the “resistance of PANC-1 cells to the drug” value in assay [2] is listed as “resistant”.

Broadly, the IC50 is the concentration that gives 50% inhibition. High values mean weaker potency, low ones greater potency. On to `[Ga+3].[O-]c1cccc2cccnc12.[O-]c1cccc2cccnc12.[O-]c1cccc2cccnc12` [tris(8-quinolinolato)gallium(III)], for which the “activity in pancreatic cancer cells resistant to gemcitabine and/or erlotinib” value in assay [3] (PANC-1) is listed as “active”. Also, the concentration for half-maximal inhibition (IC50) in assay [3] (PANC-1, 72 hours post-treatment, MTT) came out at 1.03 µM; in assay [6], 8.17 µM; in assay [7], 0.0032 µM. For the same molecule, in assay [4] (MTT assay on Day 3, read-out: average GI-50 (the drug concentration required for growth inhibition at 50%)), the GI50 was determined as 35.7 µM. For the same molecule, the tumor proliferation activity entry in assay [4] (MTT assay, FIG. 1) is “significantly inhibited tumor proliferation activity”. Moreover, the “tumor killing in live-cell staining/image analysis” value in assay [5] is given as “dose-dependent tumor killing”.
